Experimental data: patent US20250163104A1, “MACROCYCLIC IMMUNOMODULATORS” (priority 2021, published 2025)
Where a SMILES comes first, the peptide text is derived from it. Bridges are numbered along the chain shown (N, C = ends). [ ]: non-standard residue; d: D form. The star is where a group is joined. Bip(3'-COOH) = N[C@@H](Cc1ccc(-c2cccc(C(=O)O)c2)cc1)C(=O)O; Bip(4'-COOH) = N[C@@H](Cc1ccc(-c2ccc(C(=O)O)cc2)cc1)C(=O)O; Phe(3-CF3) = N[C@@H](Cc1cccc(C(F)(F)F)c1)C(=O)O; Phe(4-COOH) = N[C@@H](Cc1ccc(C(=O)O)cc1)C(=O)O; Phe(4-CH2NH2) = NCc1ccc(C[C@H](N)C(=O)O)cc1; Asp(3,3-Me2) = CC(C)(C(=O)O)[C@H](N)C(=O)O; Bip = N[C@@H](Cc1ccc(-c2ccccc2)cc1)C(=O)O; Phe(3-CN) = N#Cc1cccc(C[C@H](N)C(=O)O)c1; Phe(3-OMe) = COc1cccc(C[C@H](N)C(=O)O)c1; Ala(2-furyl) = N[C@@H](Cc1ccco1)C(=O)O; Phe(3-F) = N[C@@H](Cc1cccc(F)c1)C(=O)O; Phe(3-Me) = Cc1cccc(C[C@H](N)C(=O)O)c1; Val(3-OH) = CC(C)(O)[C@H](N)C(=O)O; 4Pal = N[C@@H](Cc1ccncc1)C(=O)O; Cha = N[C@@H](CC1CCCCC1)C(=O)O; Cit = NC(=O)NCCC[C@H](N)C(=O)O; Carboxymethyl = O=C(O)C*; Orn = NCCC[C@H](N)C(=O)O; Pra = C#CC[C@H](N)C(=O)O; Dab = NCC[C@H](N)C(=O)O; Dap = NC[C@H](N)C(=O)O; Ac3c = NC1(C(=O)O)CC1

Target: T1, human PD-1 / PD-L1-Ig binding on Jurkat cell line over-expressing human PD-1 (Jurkat-PD-1) (Homo sapiens, UniProt Q15116)
T1 construct: expressed in transfected cells; host or cells: Jurkat
Assay: Jurkat-PD-1 Cell Binding High-Content Screening Assay (CBA)
Format: cell-based
Settings: Jurkat-PD-1 cells, PE-labeled PD-L1-Ig 20 nM final; read-out: Jurkat HPD1_PDL1 IC50
In short: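 Compounds were preincubated with Jurkat-hPD-1 cells in DMEM plus 10% fetal calf serum for 2 h at 37° C. Phycoerythrin-labeled PD-L1-Ig (20 nM final) was then added for 1 hour. Cells were fixed in 4% paraformaldehyde with Hoechst 33342, and bound fluorescence was quantified by high-content imaging.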

T1 sequence (Q15116 25-288): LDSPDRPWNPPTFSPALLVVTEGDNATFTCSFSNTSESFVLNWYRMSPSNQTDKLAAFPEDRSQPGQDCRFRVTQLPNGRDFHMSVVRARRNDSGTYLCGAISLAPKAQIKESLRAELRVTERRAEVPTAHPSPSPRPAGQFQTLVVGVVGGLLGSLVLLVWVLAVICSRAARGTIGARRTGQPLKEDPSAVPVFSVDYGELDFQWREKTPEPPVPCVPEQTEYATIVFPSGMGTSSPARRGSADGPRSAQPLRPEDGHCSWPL

IC50 [nM]	SMILES
111	Cc1cccc(C[C@@H]2NC(=O)[C@H](CC(=O)O)NC(=O)[C@H](Cc3ccc(OCC(=O)O)cc3)NC(=O)[C@H](Cc3ccncc3)NC(=O)CSC[C@@H](C(=O)N[C@@H](CCN)C(N)=O)NC(=O)[C@H](CO)NC(=O)[C@H](C(C)(C)O)NC(=O)[C@H](CC3CCCCC3)NC(=O)[C@H](CCN)NC(=O)[C@@H](CC(C)C)NC(=O)C3(CC3)NC(=O)[C@H](Cc3ccc(OCC(=O)O)cc3)NC(=O)[C@H](Cc3ccc(-c4ccccc4)cc3)NC(=O)[C@H](Cc3ccc(OCC(=O)O)cc3)NC2=O)c1 [Compound 2082] ({CH2CO}-[4Pal]Y(Carboxymethyl)D[Phe(3-Me)]Y(Carboxymethyl)[Bip]Y(Carboxymethyl)[Ac3c][dL][Dab][Cha][Val(3-OH)]SC[Dab]-NH2; thioether N-14)
912	Cc1cccc(C[C@@H]2NC(=O)[C@H](CC(=O)O)NC(=O)[C@H](Cc3ccc(OCC(=O)O)cc3)NC(=O)[C@H](Cc3ccncc3)NC(=O)CSC[C@@H](C(=O)N[C@@H](CCN)C(N)=O)NC(=O)[C@H](CO)NC(=O)[C@H](C(C)(C)O)NC(=O)[C@H](CC3CCCCC3)NC(=O)[C@H](CCN)NC(=O)[C@@H](CC(C)C)NC(=O)C(C3CCNCC3)NC(=O)[C@H](Cc3ccc(OCC(=O)O)cc3)NC(=O)[C@H](Cc3ccc(-c4ccccc4)cc3)NC(=O)[C@H](Cc3ccc(OCC(=O)O)cc3)NC2=O)c1 (stereo partly drawn) [Compound 2083]
70	Cc1cccc(C[C@@H]2NC(=O)[C@H](CC(=O)O)NC(=O)[C@H](Cc3ccc(OCC(=O)O)cc3)NC(=O)[C@H](Cc3ccncc3)NC(=O)CSC[C@@H](C(=O)N[C@@H](CCN)C(N)=O)NC(=O)[C@H](C(C)(C)C(=O)O)NC(=O)[C@H](C(C)C)NC(=O)[C@H](CC3CCCCC3)NC(=O)[C@H](CCN)NC(=O)[C@@H](CC(C)C)NC(=O)[C@H](CCCN)NC(=O)[C@H](Cc3ccc(OCC(=O)O)cc3)NC(=O)[C@H](Cc3ccc(-c4ccccc4)cc3)NC(=O)[C@H](Cc3ccc(OCC(=O)O)cc3)NC2=O)c1 [Compound 2085] ({CH2CO}-[4Pal]Y(Carboxymethyl)D[Phe(3-Me)]Y(Carboxymethyl)[Bip]Y(Carboxymethyl)[Orn][dL][Dab][Cha]V[Asp(3,3-Me2)]C[Dab]-NH2; thioether N-14)
4.4	C#CC[C@H](NC(=O)[C@H](CCN)NC(=O)[C@@H]1CSCC(=O)N[C@@H](CCN)C(=O)N[C@@H](Cc2ccc(C(=O)O)cc2)C(=O)N[C@@H](CC(=O)O)C(=O)N[C@@H](Cc2cccc(C)c2)C(=O)N[C@@H](Cc2ccc(C(=O)O)cc2)C(=O)N[C@@H](Cc2ccc(-c3ccccc3)cc2)C(=O)N[C@@H](Cc2ccc(C(=O)O)cc2)C(=O)N[C@@H](CCCN)C(=O)N[C@H](CC(C)C)C(=O)N[C@@H](CCN)C(=O)N[C@@H](CC2CCCCC2)C(=O)N[C@@H](C(C)(C)O)C(=O)N[C@@H](CO)C(=O)N1)C(N)=O [Compound 2088] ({CH2CO}-[Dab][Phe(4-COOH)]D[Phe(3-Me)][Phe(4-COOH)][Bip][Phe(4-COOH)][Orn][dL][Dab][Cha][Val(3-OH)]SC[Dab][Pra]-NH2; thioether N-14)
8.3	CC(C)C[C@H]1NC(=O)[C@H](CCCN)NC(=O)[C@H](CCCNC(N)=O)NC(=O)[C@H](Cc2ccc(-c3ccccc3)cc2)NC(=O)[C@H](C(C)C)NC(=O)[C@H](Cc2c[nH]c3ccccc23)NC(=O)[C@H](CC(=O)O)NC(=O)[C@H](Cc2ccc(-c3ccc(C(=O)O)cc3)cc2)NC(=O)[C@H](CN)NC(=O)CSC[C@@H](C(=O)N[C@@H](C)C(N)=O)NC(=O)[C@H]([C@@H](C)O)NC(=O)[C@H](C(C)C)NC(=O)[C@H](CC2CCCCC2)NC(=O)[C@H](CCN)NC1=O [Compound 2089] ({CH2CO}-[Dap][Bip(4'-COOH)]DWV[Bip][Cit][Orn][dL][Dab][Cha]VTCA-NH2; thioether N-14)
7.8	CC(C)C[C@H]1NC(=O)[C@H](CCCN)NC(=O)[C@H](CCCNC(N)=O)NC(=O)[C@H](Cc2ccc(-c3ccccc3)cc2)NC(=O)[C@H](C(C)C)NC(=O)[C@H](Cc2c[nH]c3ccccc23)NC(=O)[C@H](CC(=O)O)NC(=O)[C@H](Cc2ccc(-c3cccc(C(=O)O)c3)cc2)NC(=O)[C@H](CN)NC(=O)CSC[C@@H](C(=O)N[C@@H](C)C(N)=O)NC(=O)[C@H]([C@@H](C)O)NC(=O)[C@H](C(C)C)NC(=O)[C@H](CC2CCCCC2)NC(=O)[C@H](CCN)NC1=O [Compound 2090] ({CH2CO}-[Dap][Bip(3'-COOH)]DWV[Bip][Cit][Orn][dL][Dab][Cha]VTCA-NH2; thioether N-14)
24.3	COc1cccc(C[C@@H]2NC(=O)[C@H](CN)NC(=O)CSC[C@@H](C(=O)N[C@@H](C)C(N)=O)NC(=O)[C@H]([C@@H](C)O)NC(=O)[C@H](C(C)C)NC(=O)[C@H](CC3CCCCC3)NC(=O)[C@H](CCN)NC(=O)[C@@H](CC(C)C)NC(=O)[C@H](CCCN)NC(=O)[C@H](CCCNC(N)=O)NC(=O)[C@H](Cc3ccc(-c4ccccc4)cc3)NC(=O)[C@H](C(C)C)NC(=O)[C@H](Cc3c[nH]c4ccccc34)NC(=O)[C@H](CC(=O)O)NC2=O)c1 [Compound 2091] ({CH2CO}-[Dap][Phe(3-OMe)]DWV[Bip][Cit][Orn][dL][Dab][Cha]VTCA-NH2; thioether N-14)
43.1	CC(C)C[C@H]1NC(=O)[C@H](CCCN)NC(=O)[C@H](CCCNC(N)=O)NC(=O)[C@H](Cc2ccc(-c3ccccc3)cc2)NC(=O)[C@H](C(C)C)NC(=O)[C@H](Cc2c[nH]c3ccccc23)NC(=O)[C@H](CC(=O)O)NC(=O)[C@H](Cc2cccc(C(F)(F)F)c2)NC(=O)[C@H](CN)NC(=O)CSC[C@@H](C(=O)N[C@@H](C)C(N)=O)NC(=O)[C@H]([C@@H](C)O)NC(=O)[C@H](C(C)C)NC(=O)[C@H](CC2CCCCC2)NC(=O)[C@H](CCN)NC1=O [Compound 2092] ({CH2CO}-[Dap][Phe(3-CF3)]DWV[Bip][Cit][Orn][dL][Dab][Cha]VTCA-NH2; thioether N-14)
12	CC(C)C[C@H]1NC(=O)[C@H](CCCN)NC(=O)[C@H](CCCNC(N)=O)NC(=O)[C@H](Cc2ccc(-c3ccccc3)cc2)NC(=O)[C@H](C(C)C)NC(=O)[C@H](Cc2c[nH]c3ccccc23)NC(=O)[C@H](CC(=O)O)NC(=O)[C@H](Cc2cccc(C#N)c2)NC(=O)[C@H](CN)NC(=O)CSC[C@@H](C(=O)N[C@@H](C)C(N)=O)NC(=O)[C@H]([C@@H](C)O)NC(=O)[C@H](C(C)C)NC(=O)[C@H](CC2CCCCC2)NC(=O)[C@H](CCN)NC1=O [Compound 2093] ({CH2CO}-[Dap][Phe(3-CN)]DWV[Bip][Cit][Orn][dL][Dab][Cha]VTCA-NH2; thioether N-14)
8.7	CC(C)C[C@H]1NC(=O)[C@H](CCCN)NC(=O)[C@H](CCCNC(N)=O)NC(=O)[C@H](Cc2ccc(-c3ccccc3)cc2)NC(=O)[C@H](C(C)C)NC(=O)[C@H](Cc2c[nH]c3ccccc23)NC(=O)[C@H](CC(=O)O)NC(=O)[C@H](Cc2cccnc2)NC(=O)[C@H](CN)NC(=O)CSC[C@@H](C(=O)N[C@@H](C)C(N)=O)NC(=O)[C@H]([C@@H](C)O)NC(=O)[C@H](C(C)C)NC(=O)[C@H](CC2CCCCC2)NC(=O)[C@H](CCN)NC1=O [Compound 2094]
4.5	CC(C)C[C@H]1NC(=O)[C@H](CCCN)NC(=O)[C@H](CCCNC(N)=O)NC(=O)[C@H](Cc2ccc(-c3ccccc3)cc2)NC(=O)[C@H](C(C)C)NC(=O)[C@H](Cc2c[nH]c3ccccc23)NC(=O)[C@H](CC(=O)O)NC(=O)[C@H](Cc2ccncc2)NC(=O)[C@H](CN)NC(=O)CSC[C@@H](C(=O)N[C@@H](C)C(N)=O)NC(=O)[C@H]([C@@H](C)O)NC(=O)[C@H](C(C)C)NC(=O)[C@H](CC2CCCCC2)NC(=O)[C@H](CCN)NC1=O [Compound 2096]
18.8	CC(C)C[C@H]1NC(=O)[C@H](CCCN)NC(=O)[C@H](CCCNC(N)=O)NC(=O)[C@H](Cc2ccc(-c3ccccc3)cc2)NC(=O)[C@H](C(C)C)NC(=O)[C@H](Cc2c[nH]c3ccccc23)NC(=O)[C@H](CC(=O)O)NC(=O)[C@H](Cc2cccc(F)c2)NC(=O)[C@H](CN)NC(=O)CSC[C@@H](C(=O)N[C@@H](C)C(N)=O)NC(=O)[C@H]([C@@H](C)O)NC(=O)[C@H](C(C)C)NC(=O)[C@H](CC2CCCCC2)NC(=O)[C@H](CCN)NC1=O [Compound 2097] ({CH2CO}-[Dap][Phe(3-F)]DWV[Bip][Cit][Orn][dL][Dab][Cha]VTCA-NH2; thioether N-14)
15.7	CC(C)C[C@H]1NC(=O)[C@H](CCCN)NC(=O)[C@H](CCCNC(N)=O)NC(=O)[C@H](Cc2ccc(-c3ccccc3)cc2)NC(=O)[C@H](C(C)C)NC(=O)[C@H](Cc2c[nH]c3ccccc23)NC(=O)[C@H](CC(=O)O)NC(=O)[C@H](Cc2ccc(CN)cc2)NC(=O)[C@H](CN)NC(=O)CSC[C@@H](C(=O)N[C@@H](C)C(N)=O)NC(=O)[C@H]([C@@H](C)O)NC(=O)[C@H](C(C)C)NC(=O)[C@H](CC2CCCCC2)NC(=O)[C@H](CCN)NC1=O [Compound 2098] ({CH2CO}-[Dap][Phe(4-CH2NH2)]DWV[Bip][Cit][Orn][dL][Dab][Cha]VTCA-NH2; thioether N-14)
12.6	CC(C)C[C@H]1NC(=O)[C@H](CCCN)NC(=O)[C@H](CCCNC(N)=O)NC(=O)[C@H](Cc2ccc(-c3ccccc3)cc2)NC(=O)[C@H](C(C)C)NC(=O)[C@H](Cc2c[nH]c3ccccc23)NC(=O)[C@H](CC(=O)O)NC(=O)[C@H](Cc2ccco2)NC(=O)[C@H](CN)NC(=O)CSC[C@@H](C(=O)N[C@@H](C)C(N)=O)NC(=O)[C@H]([C@@H](C)O)NC(=O)[C@H](C(C)C)NC(=O)[C@H](CC2CCCCC2)NC(=O)[C@H](CCN)NC1=O [Compound 2099] ({CH2CO}-[Dap][Ala(2-furyl)]DWV[Bip][Cit][Orn][dL][Dab][Cha]VTCA-NH2; thioether N-14)
21.2	CC(C)C[C@H]1NC(=O)[C@H](CCCN)NC(=O)[C@H](CCCNC(N)=O)NC(=O)[C@H](Cc2ccc(-c3ccccc3)cc2)NC(=O)[C@H](C(C)C)NC(=O)[C@H](Cc2c[nH]c3ccccc23)NC(=O)[C@H](CC(=O)O)NC(=O)[C@H](Cc2ccsc2)NC(=O)[C@H](CN)NC(=O)CSC[C@@H](C(=O)N[C@@H](C)C(N)=O)NC(=O)[C@H]([C@@H](C)O)NC(=O)[C@H](C(C)C)NC(=O)[C@H](CC2CCCCC2)NC(=O)[C@H](CCN)NC1=O [Compound 2100]
